Assay results: article PMC2746312, “A High-Throughput Approach for Identification of Novel General Anesthetics” (PLoS ONE, 2009)
“Also recorded” adds a separate entry of the source. Where a name gives a salt, the structure may show the parent alone. Read-outs that look alike come from different tables or passages of the source.

What was measured:
apoferritin = target: T1, apoferritin (Equus caballus, UniProt P02791); assay: Isothermal titration calorimetry (ITC) of compound into apoferritin; conditions: for ITC evidence of binding (in words): enthalpogram
T1 sequence (P02791 2-175 limits assumed): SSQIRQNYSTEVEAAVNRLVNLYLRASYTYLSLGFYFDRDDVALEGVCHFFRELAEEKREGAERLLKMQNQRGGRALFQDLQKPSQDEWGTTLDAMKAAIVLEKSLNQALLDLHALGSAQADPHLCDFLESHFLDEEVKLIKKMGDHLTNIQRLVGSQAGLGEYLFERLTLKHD

horse spleen apoferritin = target: T2, horse spleen apoferritin (Equus caballus, UniProt P02791); assay: 1-AMA/apoferritin fluorescence competition assay, qHTS in 1,536-well format; assay type: binding; conditions: for inhibition at 77 µM: read-out: inhibition at maximal concentrations in qHTS
T2 sequence (P02791 2-175 limits assumed): T1 sequence (P02791 2-175 limits assumed)
Procedure: The previously-reported apoferritin-1-AMA binding assay was miniaturized to 3 µL in 1,536-well plates.
Throughout the screen, reagent bottles and all liquid lines were made light-tight to minimize reagent degradation. Activity was computed as the normalized fluorescence response relative to free 1-AMA and 1-AMA/apoferritin complex values. Concentration–effect relationships were derived by using publicly-available curve-fitting algorithms developed in-house (http://ncgc.nih.gov/pub/openhts/). A four parameter Hill equation was fitted to the concentration-response data by minimizing the residual error between the modeled and observed responses.

[1] = computed directly from 1-AMA inhibition data, infinite value fixed to -70%, seven concentrations 77 µM to 25 nM, read-out: qHTS IC50

Row | SMILES | Kd (apoferritin) [µM] | IC50 (horse spleen apoferritin; [1]) [µM] | further results
1 | CCSC(=N)Nc1ccc(C(F)(F)F)cc1 [T7188, TFPI hydrochloride] | 25.3 | 98 | –
2 | COc1ccc2c(c1)/C(=C/c1cnc[nH]1)C(=O)N2 [S-1693, SU 9516] | – | 88 | ITC evidence of binding (in words) (apoferritin): failed to provide convincing evidence of binding; inhibition at 77 µM (horse spleen apoferritin): ~30%
3 | O=Nc1ccc2oc(=O)ccc2c1 [N-8403, 6-Nitroso-1,2-benopyrone] | 37.9 | 107 | –
4 | N#C/C(=C\c1ccc(O)c(O)c1)C(N)=S [T-7540, Tyrphostin 47] | 189 | 219 | –
5 | CN(N=O)c1ccc(O)c(O)c1 [M-9440, Methyl-3,4-dephostatin] | 284 | – | IC50 (horse spleen apoferritin): 155 µM
6 | Oc1ccc(C2CNCc3sccc32)cc1O (stereo not drawn) [S-3066, SKF-89626 hydrobromide] | – | – | ITC evidence of binding (in words) (apoferritin): does not; also recorded: failed to provide convincing evidence of binding; inhibition at 77 µM (horse spleen apoferritin): ~30%
7 | Cc1cccc(C#Cc2ccccc2)n1 [M-5435, 6-Methyl-2-(phenylethynyl)pyridine] | 313 | 152 | –
8 | Cc1ccc(O)c(/N=N/c2ccccc2)n1 [S-9186, SIB 1757] | – | 42 | –
9 | S=C([S-])OC1CC2CC1C1CCCC21.[K+] (stereo not drawn) [T-8543, O-Tricyclo[5.2.1.0^2,6]dec-9-yl dithiocarbonate potassium salt] | 12.3 | 16 | ITC evidence of binding (in words) (apoferritin): clear exothermic binding behavior
10 | CC1(C)CCC2=C(O1)c1ccccc1C(=O)C2=O [L-2037, β-Lapachone] | – | 33 | –
11 | O=c1oc(Cl)c(Cl)c2ccccc12 [D-7910, 3,4-Dichloroisocoumarin] | – | 129 | –
12 | CCOC(=O)C(C)(C)Oc1ccc(Cl)cc1 [C-6643, Clofibrate] | 11.5 | 105 | –
13 | C=C1C(=O)O[C@H]2[C@H]1CC/C(C)=C/CC[C@@]1(C)O[C@@H]21 [P-0667, Parthenolide] | 35.9 | 68 | –
14 | C#CCN(C)C(C)Cc1ccccc1 (stereo not drawn) [M-003, R-(-)-Deprenyl hydrochloride] | 74 | – | IC50 (horse spleen apoferritin): 100 µM
15 | CC(C)c1cccc(C(C)C)c1O [D-126608, 2,6-diisopropylphenol (propofol)] | 5 | – | IC50 (horse spleen apoferritin): 67 µM; qHTS screen outcome (in words) (horse spleen apoferritin; LOPAC1280 screen with filters): successfully identified in this screen
16 | CC(N)c1cccc(Cl)c1Cl (racemic) [D-103, (±)-2,3-Dichloro-alpha-methylbenzylamine hydrochloride] | 506 | 94 | –
17 | c1ccc([C@H]2CN3CCSC3=N2)cc1 [L-9756, (-)-Tetramisole hydrochloride] | 233 | 194 | –
18 | Cc1cc(C(C)(C)C)cc(C)c1CC1=NCCN1 [X-6000, Xylometazoline hydrochloride] | 177 | – | IC50 (horse spleen apoferritin): 167 µM
